A short description of assay [1]: Body weight follow-up during treatment in rats fed a high fat/medium fructose diet (WD). Type of assay: in vivo, rat. As to conditions: oral once daily, pioglitazone 10, metformin 50, GW501516 10, compound I.1 10 mg/kg (alone or +metformin 50 mg/kg). From the text: The first set of rats was undergoing an OGTT after 3 weeks of treatment (half rats/group of the clamp arm) and the second set was also undergoing an OGTT after 3 weeks of treatment (half rats/group of clamp arm) and the Histology study (3 rats/group). […] Homogenous mild obese and insulin resistant rats were allocated into the different treatment groups and western diet was continued until the end of the experiment. Given that, the 2 series started with a gap of one week Dosage regimen: Rats were treated once daily via the oral route, in the morning. The duration of the treatment was between 5 and 5.5 weeks. […], 10 mg/Kg (n=12) […] The second set of rats was weighted at 8:30 on days 17 and 21, at 1:45 pm on day 24 and at 11:10 am on day 28.

Assay [2] is described as follows: Plasma biochemistry after 17 days of treatment in WD fed rats (glycemia, insulin, HOMA-IR, adiponectin, FFA, TG). Type of assay: in vivo, rat. As to conditions: for Decrease of HOMA-IR / Decrease of plasma insulin: 4 h fasted; for Decrease of HOMA-IR: pioglitazone 10, metformin 50, GW501516 10, compound I.1 10 mg/kg; for Decrease of plasma insulin: pioglitazone 10, metformin 50, GW501516 10, compound I.1 10 mg/kg +metformin 50 mg/kg; for Plasma adiponectin levels: pioglitazone 10, metformin 50, GW501516 10, compound I.1 3 and 10 mg/kg.

A short description of assay [3]: Euglycemic-hyperinsulinemic 2 steps clamp with 3H-glucose after 5 weeks of treatment in WD fed rats. The class given is in vivo, rat. As to conditions: for Increase of GIR (glucose infusion rate) during the first step / Decrease of HGP (hepatic glucose production): clamp 0.2 U/kg/h insulin, pioglitazone 10, metformin 50, compound I.1 10 mg/kg +metformin 50 mg/kg; for Increase of glycolysis: metformin 50, GW501516 10, compound I.1 10 mg/kg (alone or +metformin 50 mg/kg). The procedure: After 4 weeks of treatment, a catheter was implanted into the femoral vein under isoflurane anaesthesia and a period of 5-6 days was respected for recovery. […] The morning of the clamp procedure, rats were treated and fasted for 6 hours prior to tracer, glucose and insulin infusions. The beginning of the clamp procedure was performed in the middle of the dark cycle.
The euglycemic hyperinsulinemic 2 steps insulin clamp was performed using 0.2 U/kg/h and 0.8 U/kg/h insulin infusion associated with 3H-glucose infusion. We then assessed:
During the clamp procedure, a bolus (30 μCi) of D-[3-3H]glucose was first injected followed by 4 μCi/min/kg infusion rate during all the experiment to ensure a detectable plasma D[3-3H]glucose enrichment. A bolus of insulin (100 mU) was first injected, and insulin was then infused at a rate of 0.2 U/kg/h for the first 2 hours and 0.8 U/kg/h from 120 minutes to 210 minutes.
Throughout the infusion, glycaemia was assessed with a blood glucose meter from the tip of the tail vein when needed. Euglycemia was maintained by periodically (every 10 minutes) adjusting a variable infusion of 30% glucose. Plasma glucose concentrations and D-[3-3H]glucose specific activity were determined during stable phase in 10 μl of blood sampled from the tip of the tail vein every 20 minutes from 60 to 120 minutes during the first step and from 150 to 210 minutes during the second step.
For glucose turnover measurements, D-[3-3H]glucose enrichments were determined from total blood after deproteinization by a Zn(OH)2 precipitate. Briefly, an aliquot of the supernatant was evaporated to dryness to determine the radioactivity corresponding to D-3-3H. In a second aliquot of the same supernatant, glucose concentration was assessed by the glucose oxidase method (Biomérieux, France).
Calculations for glucose turnover measurements were made from parameters obtained during the infusions in steady-state condition ([…]). Briefly, the D-[3-3H]glucose specific activity was calculated by dividing the D-[3-3H]glucose enrichment by the plasma glucose concentration. The whole body glucose turnover rate was calculated by dividing the rate of D[3-3H]glucose by the D-[3-3H]glucose plasma specific activity. For each rat, the mean values were calculated and averaged with values from rats of the same group. The whole body glycolysis rate was measured by assessing the amount of tritiated water accumulated in the blood during the 3H-glucose infusion and the whole body glycogen synthesis rate was calculated by the difference between the whole body glucose turnover and the whole body glycolysis rate.

Assay [4] can be described thus: Liver and adipose tissue weights after 5 weeks of treatment in WD fed rats. Type of assay: in vivo, rat. As to conditions: for Decrease of liver weight: non significant, pioglitazone 10, GW501516 10 mg/kg. How it is done:
(§1) At the end of the clamp procedure (9.5 hours fasting), perirenal, retroperitoneal, epididymal and inguinal fat pads and liver weights were recorded. Blood was collected from cardiac puncture and plasmas were stored at −80° C. for further assays if needed (depending on the radioactive state of samples). Liver triglyceride content was assessed (enzymatic-colorimetric method) as well as liver and adipose tissue TNF-α content (ELISA method).

Another assay has as its system TNF-α. Kind of assay: TNF-α content in liver and epididymal white adipose tissue after 5 weeks of treatment in WD fed rats (ELISA). As to conditions: for Decrease of TNF-α levels in epididymal white adipose tissues: metformin 50, GW501516 10, compound I.1 10 mg/kg (alone or +metformin 50 mg/kg). The class given is in vivo, rat. How it is done:
as §1
In general terms: In an ELISA, binding on a coated surface is turned into a signal by an enzyme label.

The target of the next assay is T1, rat PPARα (Rattus norvegicus, UniProt P37230).
T1 construct: expressed in transfected cells; host or cells: CV-1
T1 sequence (P37230 239-466 limits assumed): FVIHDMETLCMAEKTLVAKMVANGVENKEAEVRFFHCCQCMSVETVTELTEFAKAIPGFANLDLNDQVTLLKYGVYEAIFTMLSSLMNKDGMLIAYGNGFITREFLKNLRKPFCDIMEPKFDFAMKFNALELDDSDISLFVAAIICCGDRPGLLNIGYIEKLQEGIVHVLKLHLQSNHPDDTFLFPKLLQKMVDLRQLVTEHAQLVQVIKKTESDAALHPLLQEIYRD
Kind of assay: GAL4-PPAR chimera transactivation assay in CV-1 cells at 10% or 0.1% serum (Example 4). The class given is cell-based. As to conditions: read-out: GAL4-chimera (rat) EC50 (μM) hPPARα.

In another assay the target is T2, rat PPARδ (Rattus norvegicus, UniProt Q62879).
T2 construct: expressed in transfected cells; host or cells: CV-1
T2 sequence (Q62879 139-440 limits assumed): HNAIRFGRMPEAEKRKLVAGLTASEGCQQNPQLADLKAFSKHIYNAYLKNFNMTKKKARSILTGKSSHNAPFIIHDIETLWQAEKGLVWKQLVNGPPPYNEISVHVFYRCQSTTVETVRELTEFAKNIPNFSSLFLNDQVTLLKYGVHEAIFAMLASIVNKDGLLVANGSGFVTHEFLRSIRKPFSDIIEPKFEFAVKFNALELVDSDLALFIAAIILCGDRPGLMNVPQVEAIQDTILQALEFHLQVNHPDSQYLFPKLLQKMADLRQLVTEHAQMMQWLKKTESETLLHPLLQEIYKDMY
The assay is described as above. As to conditions: read-out: GAL4-chimera (rat) EC50 (μM) hPPARδ. The class given is cell-based. How it is done:
Assays were performed in triplicate for GAL4-chimeras. Experiments were repeated at least three times.
The EC50 were calculated as previously described.
The transactivation activities of the compound I.1 and GW501516 are measured in rat and mouse transactivation assays at 10% and 0.1% serum (Tables 11 and 12).

Assay [5] is described as follows: Oral glucose tolerance test after 3 weeks of treatment in WD fed rats. Type of assay: in vivo, rat. As to conditions: 6 h fasted, oral glucose 2.5 g/kg after 3 weeks, pioglitazone 10, metformin 50, GW501516 10, compound I.1 10 mg/kg.
A short description of assay [6]: Triglycerides content in the liver after 5 weeks of treatment in WD fed rats (enzymatic-colorimetric method). Particulars: pioglitazone 10, GW501516 10, compound I.1 at any used dose. The class given is in vivo, rat. How it is done:
as §1

Assay [7] has as its system TNF-alpha-activated HUVECs. As to conditions: under physiological flow; cited from earlier work.

Molecules are shown by their SMILES. Entries after “also recorded” stand apart in the source; their conditions may differ. Read-outs that look alike come from different tables or passages of the source.

For `CN(C)C(=N)N=C(N)N` [metformin], the “Body weight / body weight gain during treatment” value in [1] is recorded as “decreased”. In addition, the “Body weight / body weight gain during treatment” value in assay [1] (listed as Metformin) was “significantly decreased body weight after 2 weeks of treatment”. Also, in assay [2], the “Decrease of HOMA-IR” value is on record as roughly 50%, the “Decrease of plasma insulin” value is on record as 44% and the Plasma adiponectin levels result is on record as “did not prevent a decrease”. The “Insulin resistance / insulin sensitizing effect (overall)” value in assay [3] (WD fed rats, after 5 weeks, compound I.1 dose not specified (3 and 10 mg/kg groups), pioglitazone 10, metformin 50 mg/kg) is listed as “insulin sensitizing effects”. Moreover, in assay [3] (WD fed rats, clamp after 5 weeks, metformin 50 mg/kg, compound I.1 dose not specified, alone or associated), the “Whole body glucose oxidation” value is given as “tended to increase”. Moreover, the “Increase of GIR (glucose infusion rate) during the first step” value in assay [3] (after 5 weeks) is 112%. For the same molecule, the “Decrease of HGP (hepatic glucose production)” value in assay [3] amounted to 40%. Moreover, the “GIR during the second step” value in assay [3] (clamp 0.8 U/kg/h insulin, after 5 weeks, pioglitazone 10, metformin 50 mg/kg, other groups) is “tended to increase GIR (not significantly)”. The same molecule yielded an Increase of glycolysis in [3] (clamp 0.8 U/kg/h insulin) of 20%. Further, the “Decrease of perirenal white adipose tissue” value in assay [4] (tendency, metformin 50 mg/kg alone or with compound I.1 10 mg/kg) came out at 27%. In addition, in the assay with TNF-α, the “Decrease of TNF-α levels in epididymal white adipose tissues” value was determined as 25%.

As a reminder, the EC50 is the midpoint of the concentration-response curve. As for `Cc1cc(SCc2sc(-c3ccc(C(F)(F)F)cc3)nc2C)ccc1OCC(=O)O` [GW-501516], the EC50 is 1.96 ± 0.7 µM on rat PPARα (0.1% serum), greater than 10 µM at rat PPARα (10% serum), 0.072 ± 0.025 µM on rat PPARδ (0.1% serum) and 0.427 ± 0.29 µM on rat PPARδ (10% serum). The “Body weight / body weight gain during treatment” value in [1] was “slightly decreased body weight the first week of treatment but not in a significant manner; also recorded: significant after 4 weeks of treatment”. In assay [2], the “Decrease of HOMA-IR” value is listed as roughly 25%. Besides, in assay [2], the “Decrease of plasma insulin” value is 21%. In addition, the “Increase of plasma TG” value in assay [2] (GW501516 10 mg/kg, compound I.1 10 mg/kg +metformin 50 mg/kg) came out at 84%. Moreover, in assay [2], the Plasma adiponectin levels entry is recorded as “prevented the decrease”. The “Glucose tolerance (OGTT, AUC, glycemia variation)” value in [5] was “strong tendency to improved glucose tolerance”. Also, the Increase of glycolysis in [3] (clamp 0.8 U/kg/h insulin) worked out at 21%. In assay [4], the “Decrease of liver weight” value was found to be 8%. Moreover, the “Triglycerides content in the liver” value in assay [6] is recorded as “tended to decrease; also recorded: did not significantly decrease”. For the same molecule, the “TNF-α content in the liver” value in the assay with TNF-α (compound I.1 10 mg/kg +metformin 50 mg/kg, GW501516 10 mg/kg, other groups) is given as “tended to decreased”. Besides, the “Decrease of TNF-α levels in epididymal white adipose tissues” value in the assay on TNF-α was 60%. The “Decrease of TNF-α level in the liver” value in the assay on TNF-α (tendency, compound I.1 10 mg/kg +metformin 50 mg/kg, GW501516 10 mg/kg) amounted to 12%. In [7], the “Rolling and adhesion of hPMNs on TNF-alpha-activated HUVECs” value was “inhibited markedly”.

Take `CCc1ccc(CCOc2ccc(CC3SC(=O)NC3=O)cc2)nc1` (centres unmarked) [pioglitazone]: in [2], the “Decrease of HOMA-IR” value is roughly 50% and the “Decrease of plasma insulin” value turned out to be 39%. In assay [3] (after 5 weeks), the “Increase of GIR (glucose infusion rate) during the first step” value was found to be 138%. In assay [3], the “Decrease of HGP (hepatic glucose production)” value turned out to be 47%. In addition, the “Decrease of liver weight” value in assay [4] was 12%.

The record behind these values is US20110092517A1, “Use of PPAR Delta Ligands for the Treatment or Prevention of Inflammation or Energy Metabolism/Production Related Diseases” (Cerenis Therapeutics S.A. & Nippon Chemiphar Co., Ltd., priority 2009, published 2011).
